These results are taken from patent US8563730B2, “Pyrazole and fused pyrazole glucokinase activators” (Takeda San Diego, Inc., priority 2008, dated 2013).

The target in this experiment is T1, GK (glucokinase, residues 12-465) (Homo sapiens, UniProt P35557).
T1 construct: I.D. No. 1 corresponds to residues 12-465 of glucokinase; made in house; host or cells: DH10b-T1r E. coli
T1 sequence (P35557 with tags, fused parts or gaps isoform P35557-2): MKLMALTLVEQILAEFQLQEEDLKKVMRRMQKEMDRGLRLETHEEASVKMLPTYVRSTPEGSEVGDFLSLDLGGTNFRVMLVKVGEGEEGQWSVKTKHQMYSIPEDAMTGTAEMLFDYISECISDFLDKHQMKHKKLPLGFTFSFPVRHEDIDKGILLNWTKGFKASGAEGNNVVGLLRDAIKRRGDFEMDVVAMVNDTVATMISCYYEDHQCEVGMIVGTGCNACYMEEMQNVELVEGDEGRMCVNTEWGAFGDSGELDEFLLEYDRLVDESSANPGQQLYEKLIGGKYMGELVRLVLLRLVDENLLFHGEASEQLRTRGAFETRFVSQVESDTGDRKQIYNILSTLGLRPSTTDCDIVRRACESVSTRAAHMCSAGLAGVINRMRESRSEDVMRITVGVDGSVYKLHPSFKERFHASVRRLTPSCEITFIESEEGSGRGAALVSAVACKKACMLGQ
As to the kind of experiment: enzymatic glucokinase activity assay (ATP consumption, KinaseGlo luminescence). The class given is biochemical. To be noted: 5 μM ATP, 5 mM Glucose, reported as bins; for EC50: Kact = concentration that displays 50% of the maximal increase in GK activity, 60 min, room temperature, read-out: pKact. The procedure, abridged:
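E. coli-expressed recombinant GK purified by two anion-exchange steps. Reaction in 25 mM Hepes pH 7.2, 10 mM MgCl2, 1 mM DTT, 5 μM ATP, 5 mM glucose, 2% DMSO, 60 min at room temperature. ATP consumption quantified by KinaseGlo luminescence; pKact and % ACTmax derived by non-linear curve fitting.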
(Kinase-Glo reads ATP consumption through a luciferase reaction.)

Where [1] appears, read: calculated maximal gain in GK enzyme activity at a saturating concentration of the compound, read-out: % ACTmax.
Setting [2] is: read-out: % ACTmax, calculated maximal gain in GK enzyme activity at a saturating concentration of the compound.

Each structure is given as a SMILES string. Like-named read-outs stand apart in the source and are kept apart here.

On to `Cn1ccc(NC(=O)C(CC2CCOCC2)n2ncc3c(S(=O)(=O)C4CC4)c(F)ccc32)n1` (centres unmarked) [Compound 152, 2-(4-(cyclopropylsulfonyl)-5-fluoro-1H-indazol-1-yl)-N-(1-methyl-1H-pyrazol-3-yl)-3-(tetrahydro-2H-pyran-4-yl)propanamide], for which the EC50 was ≤ 316 nM. The Emax under setting [1] is 106 to 110%.
`O=C(Nc1ncc(Cl)s1)C(CC1CCOCC1)n1ncc2c(S(=O)(=O)C3CC3)cc(F)cc21` (centres unmarked) [Compound 67, N-(5-chlorothiazol-2-yl)-2-(4-(cyclopropylsulfonyl)-6-fluoro-1H-indazol-1-yl)-3-(tetrahydro-2H-pyran-4-yl)propanamide]: the EC50 is ≤ 316 nM. The Emax under setting [1] was 106 to 110%.
With `Nc1cc(S(=O)(=O)C2CC2)c2cnn([C@H](CC3CCOCC3)C(=O)Nc3ncc(F)s3)c2n1` [Compound 111, (R)-2-(6-amino-4-(cyclopropylsulfonyl)-1H-pyrazol[3,4-b]pyridin-1-yl)-N-(5-fluorothiazol-2-yl)-3-(tetrahydro-2H-pyran-4-yl)propanamide], the EC50 lay in the range of 398 to 1260 nM. For the same compound, the Emax under setting [2] is 106 to 110%.
`O=C(Nc1cnccn1)C(CC1CCOCC1)n1ncc2c(S(=O)(=O)C3CC3)cc(Cl)cc21` (centres unmarked) [Compound 102, 2-(6-chloro-4-(cyclopropylsulfonyl)-1H-indazol-1-yl)-N-(pyrazin-2-yl)-3-(tetrahydro-2H-pyran-4-yl)propanamide]: the EC50 fell in the range of 398 to 1260 nM. Under setting [1], the Emax was 90 to 100%.
For `O=C(O)c1cnc(NC(=O)C(CC2CCCC2)n2cc(S(=O)(=O)C3CC3)cn2)s1` (centres unmarked) [Compound 7, 2-(3-cyclopentyl-2-(4-(cyclopropylsulfonyl)-1H-pyrazol-1-yl)propanamido)thiazole-5-carboxylic Acid], in that order: 3980 to 12600 nM and ≤ 90%.
The matching figures for `O=C1CC[C@H](C[C@@H](C(=O)Nc2ncc(F)s2)n2ncc3c(S(=O)(=O)C4CC4)cc(Cl)cc32)C1` [Compound 79, (S)-2-(6-chloro-4-(cyclopropylsulfonyl)-1H-indazol-1-yl)-N-(5-fluorothiazol-2-yl)-3-((R)-3-oxocyclopentyl)propanamide]: ≤ 316 nM and 90 to 100%.
Consider `O=C(Nc1ncc(F)s1)C(CC1CCOCC1)n1cc(S(=O)(=O)C2CC2)cn1` (centres unmarked) [Compound 28, 2-(4-(cyclopropylsulfonyl)-1H-pyrazol-1-yl)-N-(5-fluorothiazol-2-yl)-3-(tetrahydro-2H-pyran-4-yl)propanamide], for which the EC50 was 3980 to 12600 nM. For the same compound, under setting [1], the Emax is ≥ 111%.
Take `O=C(Nc1ccc(Cl)cn1)C(CC1CCOCC1)n1cc(S(=O)(=O)C2CC2)cn1` (centres unmarked) [Compound 45, N-(5-chloropyridin-2-yl)-2-(4-(cyclopropylsulfonyl)-1H-pyrazol-1-yl)-3-(tetrahydro-2H-pyran-4-yl)propanamide]: the EC50 lay within 3980 to 12600 nM. In addition, the Emax under setting [1] was ≥ 111%.
Take `O=C(Nc1cnccn1)C(CC1CCOCC1)n1ncc2c(S(=O)(=O)C3CC3)cncc21` (centres unmarked) [20 (Free Base), 2-(4-(cyclopropylsulfonyl)-1H-pyrazolo[3,4-c]pyridin-1-yl)-N-(pyrazin-2-yl)-3-(tetrahydro-2H-pyran-4-yl)propanamide]: the EC50 is 398 to 1260 nM. For the same compound, under setting [2], the Emax is 101 to 105%.
`O=C(Nc1cnccn1)C(CC1CCOCC1)n1cc(S(=O)(=O)C2CC2)cn1` (centres unmarked) [Compound 46, 2-(4-(cyclopropylsulfonyl)-1H-pyrazol-1-yl)-N-(pyrazin-2-yl)-3-(tetrahydro-2H-pyran-4-yl)propanamide]: the EC50 is ≥ 15800 nM. Moreover, under setting [1], the Emax was 101 to 105%.
With `O=C(Nc1ncc(Cl)s1)[C@H](CC1CCOCC1)n1ncc2c(S(=O)(=O)C3CC3)cccc21` [Compound 64, (S)-N-(5-chlorothiazol-2-yl)-2-(4-(cyclopropylsulfonyl)-1H-indazol-1-yl)-3-(tetrahydro-2H-pyran-4-yl)propanamide], the EC50 was ≤ 316 nM. For the same compound, the Emax under setting [1] was ≥ 111%.
As to `Cn1ccc(NC(=O)C(CC2CCOCC2)n2ncc3c(S(=O)(=O)C4CC4)ccnc32)n1` (centres unmarked) [Compound 95, 2-(4-(cyclopropylsulfonyl)-1H-pyrazolo[3,4-b]pyridin-1-yl)-N-(1-methyl-1H-pyrazol-3-yl)-3-(tetrahydro-2H-pyran-4-yl)propanamide], the EC50 is 1580 to 3160 nM. The Emax under setting [1] is 101 to 105%.
Turning to `COc1ccc2c(cnn2C(CC2CCOCC2)C(=O)Nc2ncc(F)s2)c1S(=O)(=O)C1CC1` (centres unmarked) [Compound 80, 2-(4-(cyclopropylsulfonyl)-5-methoxy-1H-indazol-1-yl)-N-(5-fluorothiazol-2-yl)-3-(tetrahydro-2H-pyran-4-yl)propanamide], the EC50 is ≤ 316 nM. Besides, under setting [1], the Emax is 101 to 105%.
For `O=C(Nc1ncc(F)s1)[C@@H](CC1CCOCC1)n1cc(S(=O)(=O)C2CC2)cn1` [Compound 31, (R)-2-(4-(cyclopropylsulfonyl)-1H-pyrazol-1-yl)-N-(5-fluorothiazol-2-yl)-3-(tetrahydro-2H-pyran-4-yl)propanamide], the EC50 is ≥ 15800 nM. Under setting [1], the Emax was ≤ 90%.
For `O=C(Nc1cnccn1)C(CC1CCCC1)n1ncc2c(S(=O)(=O)C3CC3)cccc21` (centres unmarked) [Compound 61, 3-cyclopentyl-2-(4-(cyclopropylsulfonyl)-1H-indazol-1-yl)-N-(pyrazin-2-yl)propanamide], the EC50 was in the range of 398 to 1260 nM. The Emax under setting [1] is 90 to 100%.
On to `Cc1ccc2c(cnn2C(CC2CCOCC2)C(=O)Nc2ccn(C)n2)c1S(=O)(=O)C1CC1` (centres unmarked) [Compound 158, 2-(4-(cyclopropylsulfonyl)-5-methyl-1H-indazol-1-yl)-N-(1-methyl-1H-pyrazol-3-yl)-3-(tetrahydro-2H-pyran-4-yl)propanamide], for which the EC50 fell in the range of 398 to 1260 nM. In addition, the Emax under setting [1] was ≥ 111%.
For the compound `Cn1ccc(NC(=O)[C@@H](CC2CCOCC2)n2ncc3c(S(=O)(=O)C4CC4)c(F)ccc32)n1` [Compound 166, (R)-2-(4-(cyclopropylsulfonyl)-5-fluoro-1H-indazol-1-yl)-N-(1-methyl-1H-pyrazol-3-yl)-3-(tetrahydro-2H-pyran-4-yl)propanamide], the EC50 lay in the range of 3980 to 12600 nM. The Emax under setting [1] was 90 to 100%.
Consider `O=C(NC1CC1)c1nn(C(CC2CCOCC2)C(=O)Nc2ncc(Cl)s2)cc1Cl` (centres unmarked) [Compound 8, 4-chloro-1-(1-(5-chlorothiazol-2-ylamino)-1-oxo-3-(tetrahydro-2H-pyran-4-yl)propan-2-yl)-N-cyclopropyl-1H-pyrazole-3-carboxamide], for which the EC50 lay within 3980 to 12600 nM. Under setting [2], the Emax was ≤ 90%.
Turning to `Cn1ccc(NC(=O)[C@H](CC2CCOCC2)n2ncc3c(S(=O)(=O)C4CC4)cccc32)n1` [Compound 119], the EC50 was in the range of 398 to 1260 nM. Further, the Emax under setting [2] is 90 to 100%.
As for `O=C(Nc1ncc(F)s1)C(CC1CCOCC1)n1ncc2c(S(=O)(=O)C3CC3)cc(OC(F)F)cc21` (centres unmarked) [Compound 143, 2-(4-(cyclopropylsulfonyl)-6-(difluoromethoxy)-1H-indazol-1-yl)-N-(5-fluorothiazol-2-yl)-3-(tetrahydro-2H-pyran-4-yl)propanamide], the EC50 was ≤ 316 nM. For the same compound, the Emax under setting [1] was ≤ 90%.
As to `O=C(Nc1ncc(F)cc1F)C(CC1CCOCC1)n1ncc2c(S(=O)(=O)C3CC3)cccc21` (centres unmarked) [Compound 88, 2-(4-(cyclopropylsulfonyl)-1H-indazol-1-yl)-N-(3,5-difluoropyridin-2-yl)-3-(tetrahydro-2H-pyran-4-yl)propanamide], the EC50 is ≥ 15800 nM. Under setting [1], the Emax was ≤ 90%.
As to `Cn1ccc(NC(=O)C(CC2CCOCC2)n2cc3c(S(=O)(=O)C4CC4)c(F)ccc3n2)n1` (centres unmarked) [Compound 153, 2-(4-(cyclopropylsulfonyl)-5-fluoro-2H-indazol-2-yl)-N-(1-methyl-1H-pyrazol-3-yl)-3-(tetrahydro-2H-pyran-4-yl)propanamide], the EC50 was ≥ 15800 nM. For the same compound, the Emax under setting [1] was 106 to 110%.
Consider `COc1ccc2c(cnn2[C@@H](CC2CCOCC2)C(=O)Nc2ccn(C)n2)c1S(=O)(=O)C1CC1` [Compound 109, (S)-2-(4-(cyclopropylsulfonyl)-5-methoxy-1H-indazol-1-yl)-N-(1-methyl-1H-pyrazol-3-yl)-3-(tetrahydro-2H-pyran-4-yl)propanamide], for which the EC50 is ≤ 316 nM. For the same compound, the Emax under setting [1] is 101 to 105%.
For `Nc1cc(S(=O)(=O)C2CC2)c2cnn(C(CC3CCOCC3)C(=O)Nc3cnccn3)c2n1` (centres unmarked) [Compound 96, 2-(6-amino-4-(cyclopropylsulfonyl)-1H-pyrazolo[3,4-b]pyridin-1-yl)-N-(pyrazin-2-yl)-3-(tetrahydro-2H-pyran-4-yl)propanamide], in that order: 398 to 1260 nM and 101 to 105%.
Turning to `O=C(Nc1ncc(F)s1)[C@H](CC1CCOCC1)n1ncc2c(S(=O)(=O)C3CC3)ccnc21` [Compound 138, (S)-2-(4-(cyclopropylsulfonyl)-1H-pyrazol[3,4-b]pyridin-1-yl)-N-(5-fluorothiazol-2-yl)-3-(tetrahydro-2H-pyran-4-yl)propanamide], the EC50 was 398 to 1260 nM. Besides, the Emax under setting [1] was 90 to 100%.
